Laboratory results from PubChem BioAssay (NCI).
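Assay format: 96-well plates, 48-hour exposure. GI50 = concentration required for 50% inhibition of growth. TGI marks complete inhibition of growth.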

Key:
Experiment in all cases: NCI anticancer screen, dose series, 48 h
M14 melanoma = system: M14 melanoma
NCI-H460 lung = system: NCI-H460 lung
OVCAR-3 ovarian = system: OVCAR-3 ovarian
HT29 colon = system: HT29 colon
SF-268 CNS = system: SF-268 CNS
TK-10 renal = system: TK-10 renal
HCT-15 colon = system: HCT-15 colon
OVCAR-4 ovarian = system: OVCAR-4 ovarian
MCF7 breast = system: MCF7 breast
A498 renal = system: A498 renal
UACC-257 melanoma = system: UACC-257 melanoma
EKVX NSCLC = system: EKVX NSCLC
MDA-MB-435 = system: MDA-MB-435
SK-MEL-2 melanoma = system: SK-MEL-2 melanoma
UACC-62 melanoma = system: UACC-62 melanoma
COLO 205 colon = system: COLO 205 colon
MDA-MB-231 breast = system: MDA-MB-231 breast
NCI-H522 lung = system: NCI-H522 lung
HS 578T breast = system: HS 578T breast
NCI/ADR-RES ovarian = system: NCI/ADR-RES ovarian
HCT-116 colon = system: HCT-116 colon
MOLT-4 leukemia = system: MOLT-4 leukemia
SF-295 CNS = system: SF-295 CNS
A549 NSCLC = system: A549 NSCLC
T-47D breast = system: T-47D breast
NCI-H226 lung = system: NCI-H226 lung
BT-549 breast = system: BT-549 breast
SR leukemia = system: SR leukemia
HCC-2998 colon = system: HCC-2998 colon
CCRF-CEM leukemia = system: CCRF-CEM leukemia
SK-OV-3 ovarian = system: SK-OV-3 ovarian
IGROV1 ovarian = system: IGROV1 ovarian
SK-MEL-28 melanoma = system: SK-MEL-28 melanoma
ACHN renal = system: ACHN renal
OVCAR-5 ovarian = system: OVCAR-5 ovarian
SF-539 CNS = system: SF-539 CNS
OVCAR-8 ovarian = system: OVCAR-8 ovarian
HL-60(TB) leukemia = system: HL-60(TB) leukemia
HOP-62 NSCLC = system: HOP-62 NSCLC
LOX IMVI melanoma = system: LOX IMVI melanoma
SN12C renal = system: SN12C renal
RXF 393 renal = system: RXF 393 renal
CAKI-1 renal = system: CAKI-1 renal
SK-MEL-5 melanoma = system: SK-MEL-5 melanoma
786-0 renal = system: 786-0 renal
RPMI-8226 leukemia = system: RPMI-8226 leukemia
HOP-92 NSCLC = system: HOP-92 NSCLC
SW-620 colon = system: SW-620 colon
PC-3 prostate = system: PC-3 prostate
NCI-H23 lung = system: NCI-H23 lung
KM12 colon = system: KM12 colon
K-562 leukemia = system: K-562 leukemia
UO-31 renal = system: UO-31 renal
SNB-19 CNS = system: SNB-19 CNS
U251 CNS = system: U251 CNS
DU-145 prostate = system: DU-145 prostate
SNB-75 CNS = system: SNB-75 CNS

CC(=O)O[C@H]1C(=O)[C@@]2(C)[C@H]([C@H](OC(=O)c3ccccc3)[C@]3(O)C[C@H](OC(=O)[C@H](OC(=O)OC[C@@H]4COC(C)(C)O4)[C@@H](NC(=O)c4ccccc4)c4ccccc4)C(C)=C1C3(C)C)[C@]1(OC(C)=O)CO[C@@H]1C[C@@H]2O
GI50 (M14 melanoma): 26.8 nM
TGI (M14 melanoma): 233 nM
GI50 (NCI-H460 lung): 7.74 nM
TGI (NCI-H460 lung): > 33300 nM
GI50 (OVCAR-3 ovarian): 18.3 nM
GI50 (HT29 colon): 10.4 nM
TGI (HT29 colon): > 33300 nM
GI50 (SF-268 CNS): 251 nM
TGI (SF-268 CNS): > 33300 nM
GI50 (TK-10 renal): 656 nM
TGI (TK-10 renal): > 33300 nM
GI50 (HCT-15 colon): 552 nM
TGI (HCT-15 colon): > 33300 nM
GI50 (OVCAR-4 ovarian): > 33300 nM
TGI (OVCAR-4 ovarian): > 33300 nM
GI50 (MCF7 breast): 9.71 nM
TGI (MCF7 breast): > 33300 nM
GI50 (A498 renal): 79.9 nM
TGI (A498 renal): 758 nM
GI50 (UACC-257 melanoma): > 7380 nM
TGI (UACC-257 melanoma): > 33300 nM
GI50 (EKVX NSCLC): 190 nM
TGI (EKVX NSCLC): > 33300 nM
GI50 (MDA-MB-435): 4.81 nM
TGI (MDA-MB-435): 23.7 nM
GI50 (SK-MEL-2 melanoma): 175 nM
TGI (SK-MEL-2 melanoma): > 33300 nM
GI50 (UACC-62 melanoma): 58.7 nM
TGI (UACC-62 melanoma): > 33300 nM
GI50 (COLO 205 colon): 29.2 nM
TGI (COLO 205 colon): > 33300 nM
GI50 (MDA-MB-231 breast): 143 nM
TGI (MDA-MB-231 breast): > 7260 nM
GI50 (NCI-H522 lung): 37.5 nM
TGI (NCI-H522 lung): > 33300 nM
GI50 (HS 578T breast): 25.6 nM
TGI (HS 578T breast): 1160 nM
GI50 (NCI/ADR-RES ovarian): > 33300 nM
TGI (NCI/ADR-RES ovarian): > 33300 nM
GI50 (HCT-116 colon): 11.2 nM
TGI (HCT-116 colon): > 33300 nM
GI50 (MOLT-4 leukemia): 57.1 nM
TGI (MOLT-4 leukemia): > 33300 nM
GI50 (SF-295 CNS): 59.8 nM
TGI (SF-295 CNS): 574 nM
GI50 (A549 NSCLC): 48.8 nM
TGI (A549 NSCLC): > 33300 nM
GI50 (T-47D breast): 63.1 nM
TGI (T-47D breast): > 33300 nM
GI50 (NCI-H226 lung): 506 nM
TGI (NCI-H226 lung): > 33300 nM
GI50 (BT-549 breast): 120 nM
TGI (BT-549 breast): > 33300 nM
GI50 (SR leukemia): 31.2 nM
TGI (SR leukemia): > 33300 nM
GI50 (HCC-2998 colon): 96.9 nM
TGI (HCC-2998 colon): > 33300 nM
GI50 (CCRF-CEM leukemia): 40.2 nM
TGI (CCRF-CEM leukemia): > 33300 nM
GI50 (SK-OV-3 ovarian): 1020 nM
TGI (SK-OV-3 ovarian): > 33300 nM
GI50 (IGROV1 ovarian): 62 nM
TGI (IGROV1 ovarian): > 33300 nM
GI50 (SK-MEL-28 melanoma): > 33300 nM
TGI (SK-MEL-28 melanoma): > 33300 nM
GI50 (ACHN renal): 1040 nM
TGI (ACHN renal): > 33300 nM
GI50 (OVCAR-5 ovarian): 60.3 nM
TGI (OVCAR-5 ovarian): > 33300 nM
GI50 (SF-539 CNS): 71.5 nM
TGI (SF-539 CNS): 2210 nM
GI50 (OVCAR-8 ovarian): 85.7 nM
TGI (OVCAR-8 ovarian): > 33300 nM
GI50 (HL-60(TB) leukemia): 24.1 nM
TGI (HL-60(TB) leukemia): > 33300 nM
GI50 (HOP-62 NSCLC): 119 nM
TGI (HOP-62 NSCLC): > 33300 nM
GI50 (LOX IMVI melanoma): 18.8 nM
TGI (LOX IMVI melanoma): > 33300 nM
GI50 (SN12C renal): 60 nM
TGI (SN12C renal): > 33300 nM
GI50 (RXF 393 renal): 45.4 nM
TGI (RXF 393 renal): 279 nM
GI50 (CAKI-1 renal): 182 nM
TGI (CAKI-1 renal): > 33300 nM
GI50 (SK-MEL-5 melanoma): 147 nM
TGI (SK-MEL-5 melanoma): > 33300 nM
GI50 (786-0 renal): 327 nM
TGI (786-0 renal): > 33300 nM
GI50 (RPMI-8226 leukemia): 9.35 nM
TGI (RPMI-8226 leukemia): > 33300 nM
GI50 (HOP-92 NSCLC): 53.2 nM
TGI (HOP-92 NSCLC): > 33300 nM
GI50 (SW-620 colon): 21.3 nM
TGI (SW-620 colon): > 33300 nM
GI50 (PC-3 prostate): 45.1 nM
TGI (PC-3 prostate): > 33300 nM
GI50 (NCI-H23 lung): 72.6 nM
TGI (NCI-H23 lung): > 33300 nM
GI50 (KM12 colon): 19.6 nM
TGI (KM12 colon): > 33300 nM
GI50 (K-562 leukemia): 17.6 nM
TGI (K-562 leukemia): > 33300 nM
GI50 (UO-31 renal): 1790 nM
TGI (UO-31 renal): > 33300 nM
GI50 (SNB-19 CNS): 92.3 nM
TGI (SNB-19 CNS): > 33300 nM
GI50 (U251 CNS): 40.9 nM
TGI (U251 CNS): > 33300 nM
GI50 (DU-145 prostate): 42.4 nM
TGI (DU-145 prostate): > 33300 nM
GI50 (SNB-75 CNS): 4.11 nM
TGI (SNB-75 CNS): 137 nM
